This assay has as its target T1, CLas GMPS (guanosine 5′-monophosphate synthetase).
T1 construct: gene guaA
Format: biochemical, Candidatus Liberibacter asiaticus.

SMILES strings stand for the structures.

By Ki is commonly meant a dissociation constant, usually derived from enzyme kinetics or from competition with a known ligand. Higher therefore signals a looser hold on the target. On to `CCN(CCCOc1ccc2c(Nc3cc(CC(=O)Nc4cccc(F)c4)n[nH]3)ncnc2c1)CCOP(=O)(O)O` [Compound1334, AZD1152], for which the Ki was determined as 4.05 µM.

Consider `Nc1nc(=O)c2nc(CNc3ccc(C(=O)N[C@@H](CCC(=O)O)C(=O)O)cc3)cnc2[nH]1` [Compound5481, folic acid], for which the affinity corresponds to a Ki of 52 µM.
